# US20110217300A1, “Quinazolinone Compounds and Methods of Use Thereof” (priority 2007, published 2011)
# Legend:
# [1] = target: T1, HsEg5 (Homo sapiens, UniProt P52732); test: Fluorescence detection of HsEg5 ATPase activity (ADP Quest, automated); assay type: biochemical
# T1 sequence (P52732 18-359 limits assumed): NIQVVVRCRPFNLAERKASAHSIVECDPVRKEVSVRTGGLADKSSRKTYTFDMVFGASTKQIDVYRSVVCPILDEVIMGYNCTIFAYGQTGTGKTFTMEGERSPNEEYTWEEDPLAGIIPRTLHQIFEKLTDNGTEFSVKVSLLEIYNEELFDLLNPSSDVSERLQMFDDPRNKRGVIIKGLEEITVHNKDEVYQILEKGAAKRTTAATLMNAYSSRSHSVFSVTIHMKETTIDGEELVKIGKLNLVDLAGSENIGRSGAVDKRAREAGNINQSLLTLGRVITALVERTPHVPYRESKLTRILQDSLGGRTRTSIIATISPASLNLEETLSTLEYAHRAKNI
# Procedure, shortened: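 Microtubule-activated HsEg5 motor fragment (10 nM, 500 nM MTs) preincubated 10 min with compound, then 20 μM ATP for 10 min at room temperature in Pipes pH 7.0, MgCl2, paclitaxel, 0.3% DMSO. ADP detected via coupled-enzyme resorufin fluorescence; IC50 over 100 μM–5 nM.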
# [2] = test system: HT29 xenograft; test: Xenograft model; assay type: in vivo, mice; details: HT29, Colon; procedures and dosages of Examples 106-108
# [3] = test system: late-stage solid tumors or hematologic malignancies; test: Phase I clinical study, open-label dose escalation, intravenous; assay type: in vivo, patients
# Procedure: An open-label, dose escalation study of intravenous N-(3-amino-propyl)-3-chloro-N—[(R)-1-(7-chloro-4-oxo-3-phenylamino-3,4-dihydro-quinazolin-2-yl)-but-3-ynyl]-2-fluoro-benzamide was performed. The title compound was administered to patients with late-stage solid tumors or hematologic malignancies. […] There were 3-6 patients per cohort.
# [4] = patients with the tumor types listed in Table 5
smiles,measurement,setting,value
"C#CC[C@H](c1nc2cc(Cl)ccc2c(=O)n1Nc1ccccc1)N(CCCN)C(=O)c1cccc(Cl)c1F [Compound 1, N-(3-Amino-propyl)-3-chloro-N—[(R)-1-(7-chloro-4-oxo-3-phenylamino-3,4-dihydro-quinazolin-2-yl)-but-3-ynyl]-2-fluoro-benzamide]",IC50,[1],28 nM
same,Xenograft Outcome (approximate percent growth inhibition),[2],~30%
same,Duration on Study,"[3]; Cohort 1, 10 mg/m^2 intravenous, Cholangiocarcinoma (bile duct)",24 weeks
same,Duration on Study,"[3]; Cohort 2, 20 mg/m^2 intravenous, Colorectal cancer",17 weeks
same,Duration on Study,"[3]; Cohort 2, 20 mg/m^2 intravenous, Liposarcoma (soft tissue)",24 weeks
same,Duration on Study,"[3]; Cohort 4, 53 mg/m^2 intravenous, Leiomyosarcoma (smooth muscle)",39 weeks
same,Duration on Study,"[3]; Cohort 5, 70 mg/m^2 intravenous, Carcinoid",24 weeks
same,Duration on Study,"[3]; Cohort 6, 100 mg/m^2 intravenous, Colorectal cancer",19 weeks
same,Duration on Study,"[3]; Cohort 9, 280 mg/m^2 intravenous, Endocervical cancer",36 weeks
same,Duration on Study,"[3]; Cohort 9, 280 mg/m^2 intravenous, Malignant Thymoma, patient still on study (active)",24 (active) weeks
same,response,"[3]; endocervical cancer patient, before withdrawing consent",minor response
same,disease course,"[3]; leiomyosarcoma patient, stayed on study afterwards",tumor progression at cycle 6
same,disease status,[3]; [4],stable diseases for an extended period
same,time patients stayed on study,[3]; [4],greater than 16 weeks
